Usually EC50 stands for the concentration needed to bring the measured effect to its halfway point. A lower EC50 goes with higher potency in that assay.

In this assay the target is GLP-1 Receptor (Homo sapiens, UniProt P43220). The assay can be described thus: GLP-1R agonist cAMP stimulation assay (HEK293/GLP1R/CRE-LUC cells, HTRF cAMP dynamic 2 kit). Format: cell-based. The conditions noted are these: HEK293/CRE-Luc cell line stably expressing the GLP-1 Receptor; 30 min incubation at 37° C. In a few lines: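 HEK293 cells stably expressing GLP-1R with CRE-Luc, 1000 cells/well in DPBS with 0.5 mM IBMX and 0.10% BSA, exposed to half-log compound dilutions for 30 min at 37 °C. cAMP measured by HTRF (665/615 nm) after 1 h at room temperature.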
Sequence of GLP-1 Receptor (P43220 24-463): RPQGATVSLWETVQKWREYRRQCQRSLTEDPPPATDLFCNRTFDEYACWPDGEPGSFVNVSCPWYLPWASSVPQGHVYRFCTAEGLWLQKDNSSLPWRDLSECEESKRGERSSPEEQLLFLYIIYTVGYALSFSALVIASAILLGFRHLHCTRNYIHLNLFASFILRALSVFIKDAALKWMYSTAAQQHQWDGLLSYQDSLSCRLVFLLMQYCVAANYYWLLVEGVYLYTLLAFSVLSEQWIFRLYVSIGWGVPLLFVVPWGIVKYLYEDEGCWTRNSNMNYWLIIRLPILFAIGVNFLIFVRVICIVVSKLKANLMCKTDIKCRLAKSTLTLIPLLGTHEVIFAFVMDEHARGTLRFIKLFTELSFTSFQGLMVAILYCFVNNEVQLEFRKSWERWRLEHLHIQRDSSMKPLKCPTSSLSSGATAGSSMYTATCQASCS
For `CS(=O)(=O)c1nnc(-c2ccc3c(c2)nc(CN2CCc4cc(C(F)(F)F)c(OCc5ccc(Cl)cc5F)nc4C2)n3C[C@@H]2CCO2)[nH]1` [Compound 87, 2-[(4-chloro-2-fluorophenyl)methoxy]-7-{[5-(5-methanesulfonyl-4H-1,2,4-triazol-3-yl)-1-{[(2S)-oxetan-2-yl]methyl}-1H-1,3-benzodiazol-2-yl]methyl}-3-(trifluoromethyl)-5,6,7,8-tetrahydro-1,7-naphthyridine], the EC50 lay within 1 to 300 nM.

`Fc1cc(Cl)ccc1COc1nc2c(cc1C(F)(F)F)CCN(Cc1nc3cc(-c4nnc(C(F)(F)F)[nH]4)ncc3n1C[C@H]1CCCO1)C2` [Compound 78, 2-[(4-chloro-2-fluorophenyl)methoxy]-7-[(3-{1[(2R)-oxolan-2-yl]methyl}-6-[5-(trifluoromethyl)-4H-1,2,4-triazol-3-yl]-3H-imidazo[4,5-c]pyridin-2-yl)methyl]-3-(trifluoromethyl)-5,6,7,8-tetrahydro-1,7-naphthyridine] gave an EC50 of 1 to 300 nM.

Take `NC(=O)c1nnc(-c2cc3nc(CN4CCc5cc(C(F)(F)F)c(OCc6c(F)cc(Cl)cc6F)nc5C4)n(C[C@@H]4CCO4)c3cn2)[nH]1` [Compound 44, 5-[2-({2-[(4-chloro-2,6-difluorophenyl)methoxy]-3-(trifluoromethyl)-5,6,7,8-tetrahydro-1,7-naphthyridin-7-yl}methyl)-3-{[(2S)-oxetan-2-yl]methyl}-3H-imidazo[4,5-c]pyridin-6-yl]-4H-1,2,4-triazole-3-carboxamide]: the concentration giving a half-maximal response (EC50) was below 1 nM.

`CC(F)(F)c1nnc(-c2cc3nc(CN4CCc5cc(C(F)(F)F)c(OCc6ccc(Cl)cc6F)nc5C4)n(C[C@@H]4CCO4)c3cn2)[nH]1` [Compound 66, 2-[(4-chloro-2-fluorophenyl)methoxy]-7-({6-[5-(1,1-difluoroethyl)-4H-1,2,4-triazol-3-yl]-3-{[(2S)-oxetan-2-yl]methyl}-3H-imidazo[4,5-c]pyridin-2-yl}methyl)-3-(trifluoromethyl)-5,6,7,8-tetrahydro-1,7-naphthyridine] registered a concentration giving a half-maximal response (EC50) below 1 nM.

Turning to `CNC(=O)c1ccc2c(nc(CN3CCc4cc(C(F)(F)F)c(OCc5ccc(Cl)cc5F)nc4C3)n2C[C@@H]2CCO2)c1F` [Compound 22, 2-({2-[(4-chloro-2-fluorophenyl)methoxy]-3-(trifluoromethyl)-5,6,7,8-tetrahydro-1,7-naphthyridin-7-yl}methyl)-4-fluoro-N-methyl-1-{[(2S)-oxetan-2-yl]methyl}-1H-1,3-benzodiazole-5-carboxamide], the EC50 lay in the range of 1 to 300 nM.

As for `Fc1cc(Cl)ccc1COc1nc2c(cc1C(F)(F)F)CCN(Cc1nc3cc(-c4nnc(C(F)(F)F)[nH]4)cnc3n1C[C@@H]1CCO1)C2` [Compound 16, 2-[(4-chloro-2-fluorophenyl)methoxy]-7-[(3-{[(2S)-oxetan-2-yl]methyl}-6-[5-(trifluoromethyl)-4H-1,2,4-triazol-3-yl]-3H-imidazo[4,5-b]pyridin-2-yl)methyl]-3-(trifluoromethyl)-5,6,7,8-tetrahydro-1,7-naphthyridine], the EC50 was below 1 nM.

`N#Cc1cc2c(nc1OCc1c(F)cc(Cl)cc1F)CN(Cc1nc3cc(-c4nnc(C(F)F)[nH]4)ncc3n1C[C@@H]1CCO1)CC2` [Compound 69, 2-[(4-chloro-2,6-difluorophenyl)methoxy]-7-({6-[5-(difluoromethyl)-4H-1,2,4-triazol-3-yl]-3-{[(2S)-oxetan-2-yl]methyl}-3H-imidazo[4,5-c]pyridin-2-yl}methyl)-5,6,7,8-tetrahydro-1,7-naphthyridine-3-carbonitrile]: the EC50 is below 1 nM.

On to `N#Cc1nnc(-c2cc3nc(CN4CCc5cc(Cl)c(OCc6ccc(Cl)cc6F)nc5C4)n(C[C@@H]4CCO4)c3cn2)[nH]1` [Compound 8, 5-[2-({3-chloro-2-[(4-chloro-2-fluorophenyl)methoxy]-5,6,7,8-tetrahydro-1,7-naphthyridin-7-yl}methyl)-3-{[(2S)-oxetan-2-yl]methyl}-3H-imidazo[4,5-c]pyridin-6-yl]-4H-1,2,4-triazole-3-carbonitrile], for which the EC50 was below 1 nM.

Compound `O=c1[nH]c(-c2ccc3c(nc(CN4CCc5cc(C(F)(F)F)c(OCc6ccc(Cl)cc6)nc5C4)n3C[C@@H]3CCO3)c2F)no1` [Compound 46, 3-[2-({2-[(4-chlorophenyl)methoxy]-3-(trifluoromethyl)-5,6,7,8-tetrahydro-1,7-naphthyridin-7-yl}methyl)-4-fluoro-1-{[(2S)-oxetan-2-yl]methyl}-1H-1,3-benzodiazol-5-yl]-4,5-dihydro-1,2,4-oxadiazol-5-one] displayed a concentration giving a half-maximal response (EC50) below 1 nM.

`Cc1cc2c(nc1OCc1c(F)cc(Cl)cc1F)CN(Cc1nc3cc(-c4nnn[nH]4)ncc3n1C[C@@H]1CCO1)CC2` [Compound 91, 2-[(4-chloro-2,6-difluorophenyl)methoxy]-3-methyl-7-[(3-{[(2S)-oxetan-2-yl]methyl}-6-(1H-1,2,3,4-tetrazol-5-yl)-3H-imidazo[4,5-c]pyridin-2-yl)methyl]-5,6,7,8-tetrahydro-1,7-naphthyridine]: the concentration for a half-maximal effect (EC50) was below 1 nM.

As to `O=c1[nH]c(-c2ccc3c(nc(CN4CCc5cc(C(F)(F)F)c(OCc6c(F)cc(Cl)cc6F)nc5C4)n3C[C@@H]3CCO3)c2F)no1` [Compound 48, 3-[2-({2-[(4-chloro-2,6-difluorophenyl)methoxy]-3-(trifluoromethyl)-5,6,7,8-tetrahydro-1,7-naphthyridin-7-yl}methyl)-4-fluoro-1-{[(2S)-oxetan-2-yl]methyl}-1H-1,3-benzodiazol-5-yl]-4,5-dihydro-1,2,4-oxadiazol-5-one], the EC50 lay in the range of 1 to 300 nM.

As to `N#Cc1nnc(-c2cc3nc(CN4CCc5cc(C(F)(F)F)c(OCc6ccc(Cl)cc6F)nc5C4)n(C[C@@H]4CCO4)c3cn2)[nH]1` [Compound 20, 5-[2-({2-[(4-chloro-2-fluorophenyl)methoxy]-3-(trifluoromethyl)-5,6,7,8-tetrahydro-1,7-naphthyridin-7-yl}methyl)-3-{[(2S)-oxetan-2-yl]methyl}-3H-imidazo[4,5-c]pyridin-6-yl]-4H-1,2,4-triazole-3-carbonitrile], the half-maximal effective concentration (EC50) was below 1 nM.

`Cc1cc(-c2nnc(C(F)(F)F)[nH]2)cnc1CN1CCc2cc(Cl)c(OCc3ccc(Cl)cc3F)nc2C1` [Compound 12, 3-chloro-2-[(4-chloro-2-fluorophenyl)methoxy]-7-({3-methyl-5-[5-(trifluoromethyl)-4H-1,2,4-triazol-3-yl]pyridin-2-yl}methyl)-5,6,7,8-tetrahydro-1,7-naphthyridine] displayed an EC50 above 300 nM.

For `FC(F)(F)c1cc2c(nc1OCc1ccc(Cl)cc1)CN(Cc1nc3cc(-c4nnc[nH]4)ncc3n1C[C@@H]1CCO1)CC2` [Compound 64, 2-[(4-chlorophenyl)methoxy]-7-[(3-{[(2S)-oxetan-2-yl]methyl}-6-(4H-1,2,4-triazol-3-yl)-3H-imidazo[4,5-c]pyridin-2-yl)methyl]-3-(trifluoromethyl)-5,6,7,8-tetrahydro-1,7-naphthyridine], the EC50 lay within 1 to 300 nM.

The compound `FC(F)(F)c1nnc(-c2cc3nc(CN4CCc5cc(C(F)(F)F)c(OCc6ccc(Cl)cn6)nc5C4)n(C[C@@H]4CCO4)c3cn2)[nH]1` [Compound 74, 2-[(5-chloropyridin-2-yl)methoxy]-7-[(3-{[(2S)-oxetan-2-yl]methyl}-6-[5-(trifluoromethyl)-4H-1,2,4-triazol-3-yl]-3H-imidazo[4,5-c]pyridin-2-yl)methyl]-3-(trifluoromethyl)-5,6,7,8-tetrahydro-1,7-naphthyridine] showed a concentration giving a half-maximal response (EC50) below 1 nM.

`CNC(=O)c1nnc(-c2cc3nc(CN4CCc5cc(C(F)(F)F)c(OCc6ccc(Cl)cc6F)nc5C4)n(C[C@@H]4CCO4)c3cn2)[nH]1` [Compound 94, 5-[2-({2-[(4-chloro-2-fluorophenyl)methoxy]-3-(trifluoromethyl)-5,6,7,8-tetrahydro-1,7-naphthyridin-7-yl}methyl)-3-{[(2S)-oxetan-2-yl]methyl}-3H-imidazo[4,5-c]pyridin-6-yl]-N-methyl-4H-1,2,4-triazole-3-carboxamide]: the 50% effective concentration (EC50) was below 1 nM.

The compound `O=c1[nH]c(-c2cc3nc(CN4CCc5cc(C(F)(F)F)c(OCc6ccc(Cl)cc6F)nc5C4)n(C[C@@H]4CCO4)c3cc2F)no1` [Compound 38, 3-[2-({2-[(4-chloro-2-fluorophenyl)methoxy]-3-(trifluoromethyl)-5,6,7,8-tetrahydro-1,7-naphthyridin-7-yl}methyl)-6-fluoro-1-{[(2S)-oxetan-2-yl]methyl}-1H-1,3-benzodiazol-5-yl]-4,5-dihydro-1,2,4-oxadiazol-5-one] registered a concentration for a half-maximal effect (EC50) of 1 to 300 nM.

`O=c1[nH]c(-c2cc3nc(CN4CCc5cc(C(F)(F)F)c(OCc6c(F)cc(Cl)cc6F)nc5C4)n(C[C@@H]4CCO4)c3cn2)no1` [Compound 32, 3-[2-({2-[(4-chloro-2,6-difluorophenyl)methoxy]-3-(trifluoromethyl)-5,6,7,8-tetrahydro-1,7-naphthyridin-7-yl}methyl)-3-{1[(2S)-oxetan-2-yl]methyl}-3H-imidazo[4,5-c]pyridin-6-yl]-4,5-dihydro-1,2,4-oxadiazol-5-one] displayed a concentration for a half-maximal effect (EC50) below 1 nM.

In turn, `Cc1cc2c(nc1OCc1c(F)cc(Cl)cc1F)CN(Cc1nc3cc(-c4nnc(C(F)F)[nH]4)cnc3n1C[C@@H]1CCO1)CC2` [Compound 53, 2-[(4-chloro-2,6-difluorophenyl)methoxy]-7-({6-[5-(difluoromethyl)-4H-1,2,4-triazol-3-yl]-3-{1[(2S)-oxetan-2-yl]methyl}-3H-imidazo[4,5-b]pyridin-2-yl}methyl)-3-methyl-5,6,7,8-tetrahydro-1,7-naphthyridine] yielded an EC50 below 1 nM.

Turning to `Fc1cc(Cl)ccc1COc1nc2c(cc1C(F)F)CCN(Cc1nc3cc(-c4nnc(C(F)(F)F)[nH]4)ncc3n1C[C@@H]1CCO1)C2` [Compound 72, 2-[(4-chloro-2-fluorophenyl)methoxy]-3-(difluoromethyl)-7-[(3-{[(2S)-oxetan-2-yl]methyl}-6-[5-(trifluoromethyl)-4H-1,2,4-triazol-3-yl]-3H-imidazo[4,5-c]pyridin-2-yl)methyl]-5,6,7,8-tetrahydro-1,7-naphthyridine], the EC50 is below 1 nM.

Source of the values: patent US20250206757A1 (GASHERBRUM BIO, INC., priority 2022, published 2025).
